For 51 molecules, EC50, IC50 and outcome results are on record in PubChem BioAssay AID179 (DTP/NCI, 2004).

This assay concerns CEM cells HIV-1 protection, formazan growth assay. Kind of assay: NCI AIDS Antiviral Assay. Particulars: for IC50: measured here: growth of uninfected CEM cells. In outline:
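Soluble formazan readout of cell growth; CEM cells ± HIV-1; 5 drug concs. ≥50% protection → retest; ≥50% again = moderately active; reproducible 100% = confirmed active.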

The EC50 is the midpoint of the concentration-response curve. By IC50 is commonly meant the point on the concentration scale where inhibition reaches its midpoint. A higher IC50 goes with weaker potency in that assay.

Molecules are shown by their SMILES. Several values for one entry are separate records, joined by “and”; a condition that tells them apart may be missing. Equal values may be shown once. Activity calls are given as the source filed them.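 The calls were made as follows: active = compounds giving half or more protection of infected cells from virus-caused growth loss, again on retest; inactive = the rest.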 Where a SMILES comes first, the peptide text is derived from it. [ ]: non-standard residue; d: D form. The star is where a group is joined. Cbz = O=C(OCc1ccccc1)*; Boc = CC(C)(C)OC(=O)*; Aib = CC(C)(N)C(=O)O; OBn = c1ccc(CO*)cc1; OtBu = CC(C)(C)O*; βAla = NCCC(=O)O

As to `O=C(O)c1ccc(CSc2ccc([N+](=O)[O-])cc2)c([N+](=O)[O-])c1`, the EC50 is more than 204 µM and the IC50 was more than 100 µM.

In the case of `OCC1=CC(NC2CC(CO)C(O)C(O)C2O)C(O)C(O)C1O` (stereo not given), the outcome was inactive.

`Clc1ccccc1/C=C\C1(c2ccccc2)OCCO1`: the EC50 is more than 200 µM and the IC50 was determined as 10.5 µM.

As for `O=C(N/C(=C\c1ccc2c(c1)OCO2)c1nc2ccccc2[nH]1)c1ccccc1`, the EC50 was more than 26.3 µM and the IC50 was more than 26.3 µM.

On to `CC(C)(C)OC(=O)CC(NC(=O)OC(C)(C)C)C(=O)NC(CCCCNC(=O)OCc1ccccc1)C(=O)NC(C)(C)C(=O)NCCC(=O)OCc1ccccc1` (stereo not given) (Boc-D(OtBu)K(Cbz)[Aib][βAla]-OBn; configuration not given here), for which the EC50 is more than 100 µM and the IC50 was more than 100 µM.

Regarding `CC(=O)N(C(=O)CC(=O)NN)c1ccc(Cl)cc1`, the outcome was inactive.

Turning to `O=C(NCCc1ccccc1)c1cc2ccc(O)c(O)c2cn1`, the EC50 was more than 145 µM; the IC50 was 4.37 µM and 2.04 µM.

In the case of `COc1ccc(C(=O)C(C(=O)C(=O)Nc2nccs2)c2ccc(OC)cc2)cc1` (stereo not given), the EC50 is more than 63.1 µM and the IC50 is more than 63.1 µM.

As to `CCOC(=O)C1(Cc2ccc3c(c2)CCC3)Cc2cc3c(cc2C1=O)CCC3` (stereo not given), the EC50 is more than 200 µM and the IC50 turned out to be 23.4 µM.

Take `NC1=NNC(=O)C1N=Nc1ccc(S(=O)(=O)Nc2nccs2)cc1` (stereo not given): the EC50 was more than 200 µM and the IC50 was more than 200 µM.

As for `COC(=O)C1=C(C)N2CCCOC2(C)C(C(=O)OC)C1c1cccc(Cl)c1` (stereo not given), the EC50 is more than 200 µM and the IC50 was 112 µM.

On to `COc1ccc(/C=C2\CSC(=O)NC2=O)cc1OC`, for which the EC50 is more than 891 µM and the IC50 came to 240 µM.

`NNC(=S)N/N=C(\c1nc2ccc(Cl)cc2[nH]c1=O)C(O)c1ccc(Cl)cc1Cl` (stereo not given): the EC50 is more than 525 µM and the IC50 came to 97.7 µM.

Consider `COc1cc(COC(=O)N2CC=CC2C(=O)O)c([N+](=O)[O-])cc1OC` (stereo not given), for which the EC50 was more than 708 µM and the IC50 is more than 708 µM.

On to `O=S1(=O)c2ccccc2C(O)(c2ccccc2)c2ccccc21`, for which the EC50 was more than 200 µM and the IC50 stood at 123 µM.

Turning to `CC(C)(C)OC(=O)C1/C(=C/CBr)CN1C(=O)OC(C)(C)C` (stereo not given), the EC50 is more than 200 µM and the IC50 was 3.98 µM.

For `CCCCCCCCC(C)CCCCCCCCC(=O)O` (stereo not given), the outcome was inactive.

In the case of `C[C@]12CC[C@H](O)CC1=CC[C@@H]1[C@@H]2CC[C@]2(C)C(=O)CC[C@@H]12`, the EC50 is more than 126 µM and the IC50 stood at 83.2 µM.

On to `Cc1cn(C2CC(OC3CCCCO3)C(CO)O2)c(=O)[nH]c1=O` (stereo not given), for which the EC50 was more than 200 µM and the 50% inhibitory concentration (IC50) was more than 200 µM.

Regarding `C/C(Cl)=N\OC(=O)Nc1ccccc1C(F)(F)F`, the EC50 was more than 200 µM and the IC50 was determined as 33.1 µM.

For the molecule `Cc1cc(C)c(C)c(C(=O)OCC(C)(C)C)c1C`, the EC50 is more than 200 µM and the IC50 was determined as 110 µM.

As to `CC/C(Cl)=N\OC(=O)NCc1ccc(F)cc1`, the EC50 is more than 20 µM and the IC50 was 4.47 µM.

Turning to `CCOC(=O)Cc1cc(=O)[nH]c(-n2[nH]c(C)c(CCO)c2=O)n1`, the EC50 was more than 200 µM and the IC50 is more than 200 µM.

With `CCOC(=O)c1ccc(NC(=O)O/N=C(/Cl)CC)cc1`, the result was inactive.

On to `Cc1ccc(Nc2nc3nc[nH]c3c(=O)[nH]2)cc1CO`, for which the EC50 is more than 200 µM and the IC50 was more than 200 µM.

In the case of `CCOC(=O)C(C)[P+](c1ccccc1)(c1ccccc1)c1ccccc1` (stereo not given), the EC50 was more than 200 µM and the concentration for half-maximal inhibition (IC50) was determined as 3.09 µM.

For the molecule `CC1=NS(=O)(=O)c2ccccc2N1`, the EC50 is more than 1260 µM and the half-maximal inhibitory concentration (IC50) was more than 1260 µM.

In the case of `CC(O)[C@@]1(c2ccccc2)CC2(CCN(C)CC2)O[C@H]1C` (stereo not given in full), the EC50 is more than 200 µM and the IC50 was more than 200 µM.

Consider `C[C@]12c3c4cc(NC(=O)C(=O)NCc5ccc(-c6ccccn6)nc5)cc3Oc3cc(NC(=O)C(=O)NCc5ccc(-c6ccccn6)nc5)cc(c31)OC1C=C(NC(=O)C(=O)NCc3ccc(-c5ccccn5)nc3)C=C(O4)C12` (stereo not given in full), for which the EC50 is more than 100 µM and the IC50 came to 21.4 µM.

For `O=C(O)c1cccc(C(=O)O)c1-c1c(C(=O)O)cccc1C(=O)O`, the EC50 was more than 200 µM and the IC50 was more than 200 µM.

Take `COc1ccccc1NC(=O)/C(C=NC(=S)c1ccncc1)=C(\C)O`: the result was inactive.

As for `CC12CCC3(OCCO3)C(OC(=O)c3ccccc3)=C1CCC21OCCO1` (stereo not given), the outcome was inactive.

As to `O=c1[nH]c(=O)n(C2CC(O)C(CO)O2)cc1C#Cc1cc(F)cc(F)c1` (stereo not given), the EC50 was more than 692 µM and the half-inhibitory concentration (IC50) is 355 µM.

`O=C(c1nc2ccc(Cl)cc2[nH]c1=O)C(O)c1ccco1` (stereo not given): the EC50 is more than 8.13 µM and the IC50 amounted to 2.57 µM.

With `COC(=O)c1c2cccccc-2c(Cc2c3cccccc-3c(C(=O)OC)c2O)c1O`, the EC50 is more than 200 µM and the IC50 is more than 200 µM.

Regarding `C=C(C)C(O)C(OCC)c1c(OC)ccc2ccc(=O)oc12` (stereo not given), the EC50 was more than 200 µM and the IC50 is more than 200 µM.

For `COc1ccc(OC)c2c(=O)c3ccccc3[nH]c12`, the result was inactive.

With `CCNCCCCNCCCCNCCCCNCCCCNCC`, the EC50 was more than 2190 µM and the IC50 was found to be 12.3 µM.

Consider `CN1C(=O)N(C)C2(CCN(CC(CC3OCCO3)c3ccc(F)cc3)CC2)C1=O` (stereo not given), for which the EC50 is more than 200 µM and the IC50 was more than 200 µM.

On to `CC(Cc1ccccc1)N(C)Cc1nc(C2CCC([N+](=O)[O-])O2)no1` (stereo not given), for which the EC50 was more than 200 µM and the IC50 turned out to be 36.3 µM.

With `CCC(C)c1c(NC(C)=O)o[nH]c1=O` (stereo not given), the EC50 was more than 200 µM and the IC50 was more than 200 µM.

On to `CS(=O)(=O)SCCCS(=O)(=O)O`, for which the EC50 was more than 912 µM and the IC50 is more than 912 µM.

As to `CC(Oc1ccc(OCC2CCCCC2)cc1)C(=O)O` (stereo not given), the EC50 is more than 468 µM and the concentration for half-maximal inhibition (IC50) was 457 µM.

Regarding `COC(=O)C(CC(C)=O)CS(=O)(=O)CC(=O)C(=O)Nc1cccc([N+](=O)[O-])c1` (stereo not given), the EC50 was more than 162 µM and the IC50 is more than 162 µM.

As to `CN(/N=C/c1ccc(C(=O)O)cc1)C1=NCCCCN1`, the EC50 is more than 200 µM and the IC50 was more than 200 µM.

Take `c1ccc2c(c1)c1c(n2CCOCCN2CCCCC2)CCCC1`: the EC50 is more than 200 µM and the IC50 was found to be 8.32 µM.

`COC1=CC(=O)[C@H]2[C@H](C)C(c3ccccc3)[C@@]2(C)C1=O` (stereo not given in full): the EC50 is more than 933 µM and the concentration for half-maximal inhibition (IC50) amounted to 603 µM.

Take `CCCCCCCCC#CCCCCCCCCCC[C@@H]1C(=O)O[C@H](C)[C@@H]1O` (tested in a mixture with another compound): the EC50 is more than 200 µM and the IC50 is 35.5 µM.

With `CCOC(=O)c1nc2ccc(C(F)(F)F)cc2nc1NCc1ccc(OC)c(OC)c1`, the EC50 is more than 200 µM and the IC50 came to 85.1 µM.

Take `CN=C(/N=c1\ssc(=NC)n1C)N(C)C`: the half-maximal effective concentration (EC50) is more than 70.8 µM and the IC50 was 50.1 µM.

In the case of `CC(C)c1ccc(Cc2ccc(C(C)C)c(NC(=O)C(=O)Cc3cnc4ccccc4n3)c2C(C)C)c(C(C)C)c1NC(=O)C(=O)Cc1cnc2ccccc2n1`, the EC50 was more than 13.2 µM and the 50% inhibitory concentration (IC50) was more than 13.2 µM.
